Assay results published in patent US11324738B2, “Muscarinic agonists” (Heptares Therapeutics Limited, priority 2015, dated 2022).

Assays:
Type in all cases: cell-based
[1] = biological target: T1, human muscarinic M4 receptor (Homo sapiens, UniProt P08173); experiment: Alphascreen Surefire phospho-ERK1/2 functional assay, CHO cells expressing M4; details: for Emax: CHO, read-out: % Emax cf. ACh, M4; for EC50: agonist, CHO cells, phospho-ERK1/2, read-out: pEC50 M4 (converted)
T1 construct: expressed in transfected cells
T1 sequence (P08173 1-479): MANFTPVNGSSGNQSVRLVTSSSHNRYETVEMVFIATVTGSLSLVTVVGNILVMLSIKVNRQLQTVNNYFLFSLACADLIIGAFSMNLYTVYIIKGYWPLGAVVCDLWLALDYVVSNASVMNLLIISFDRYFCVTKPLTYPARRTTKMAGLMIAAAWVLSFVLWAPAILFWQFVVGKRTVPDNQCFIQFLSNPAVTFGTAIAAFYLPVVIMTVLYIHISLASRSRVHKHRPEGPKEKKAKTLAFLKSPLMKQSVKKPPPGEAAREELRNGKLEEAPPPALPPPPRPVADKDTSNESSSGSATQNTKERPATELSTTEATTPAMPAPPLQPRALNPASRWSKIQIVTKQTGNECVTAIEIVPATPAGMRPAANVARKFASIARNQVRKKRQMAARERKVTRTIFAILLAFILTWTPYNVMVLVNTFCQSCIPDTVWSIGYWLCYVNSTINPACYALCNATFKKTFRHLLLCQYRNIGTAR
Method: (§1) ERK1/2 phosphorylation is a downstream consequence of both Gq/11 and Gi/o protein coupled receptor activation, making it highly suitable for the assessment of M1, M3 (Gq/11 coupled) and M2, M4 receptors (Gi/o coupled), rather than using different assay formats for different receptor subtypes. CHO cells stably expressing the human muscarinic M1, M2, M3 or M4 receptor were plated (25K/well) onto 96-well tissue culture plates in MEM-alpha+10% dialysed FBS. Once adhered, cells were serum-starved overnight. Agonist stimulation was performed by the addition of 5 μL agonist to the cells for 5 min (37° C.). Media was removed and 50 μL of lysis buffer added. After 15 min, a 4 μL sample was transferred to 384-well plate and 7 μL of detection mixture added.

[2] = biological target: T2, human muscarinic M1 receptor (Homo sapiens, UniProt P11229); experiment: Alphascreen Surefire phospho-ERK1/2 functional assay, CHO cells expressing M1; details: for Emax: CHO, read-out: % Emax cf. ACh, M1; for EC50: agonist, CHO cells, phospho-ERK1/2, read-out: pEC50 M1 (converted)
T2 construct: expressed in transfected cells
T2 sequence (P11229 1-460): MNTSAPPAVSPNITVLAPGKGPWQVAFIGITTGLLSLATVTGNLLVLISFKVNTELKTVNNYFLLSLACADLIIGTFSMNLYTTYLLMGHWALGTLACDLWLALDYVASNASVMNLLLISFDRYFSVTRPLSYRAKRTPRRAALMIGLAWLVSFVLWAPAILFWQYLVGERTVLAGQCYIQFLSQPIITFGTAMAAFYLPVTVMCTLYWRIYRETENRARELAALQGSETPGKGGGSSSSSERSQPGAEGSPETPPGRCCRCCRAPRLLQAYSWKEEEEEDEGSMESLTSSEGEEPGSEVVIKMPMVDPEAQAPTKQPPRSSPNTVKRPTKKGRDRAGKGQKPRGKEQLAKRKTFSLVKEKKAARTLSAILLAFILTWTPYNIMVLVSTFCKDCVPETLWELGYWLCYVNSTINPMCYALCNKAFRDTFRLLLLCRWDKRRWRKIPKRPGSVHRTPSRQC
Method: as §1

[3] = biological target: T3, human muscarinic M3 receptor (Homo sapiens, UniProt P20309); experiment: Alphascreen Surefire phospho-ERK1/2 functional assay, CHO cells expressing M3; details: for Emax: CHO, read-out: % Emax cf. ACh, M3; for EC50: agonist, CHO cells, phospho-ERK1/2, read-out: pEC50 M3 (converted)
T3 construct: expressed in transfected cells
T3 sequence (P20309 whole entry): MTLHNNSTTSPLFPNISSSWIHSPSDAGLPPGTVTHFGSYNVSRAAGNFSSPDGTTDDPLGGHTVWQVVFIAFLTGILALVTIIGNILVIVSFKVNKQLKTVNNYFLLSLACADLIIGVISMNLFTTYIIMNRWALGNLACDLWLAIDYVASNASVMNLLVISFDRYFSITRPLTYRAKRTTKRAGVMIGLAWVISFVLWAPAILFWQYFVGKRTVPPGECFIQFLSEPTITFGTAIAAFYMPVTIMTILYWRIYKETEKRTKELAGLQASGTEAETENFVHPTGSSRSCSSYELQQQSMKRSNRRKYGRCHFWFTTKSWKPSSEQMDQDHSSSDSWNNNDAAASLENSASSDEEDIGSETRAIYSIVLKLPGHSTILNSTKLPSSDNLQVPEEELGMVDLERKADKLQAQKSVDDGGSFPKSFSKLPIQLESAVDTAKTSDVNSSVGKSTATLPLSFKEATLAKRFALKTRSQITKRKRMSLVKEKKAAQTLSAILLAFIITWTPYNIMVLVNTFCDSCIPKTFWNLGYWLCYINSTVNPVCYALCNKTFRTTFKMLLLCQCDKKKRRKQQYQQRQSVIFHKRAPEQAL
Method: as §1

[4] = biological target: T4, human muscarinic M2 receptor (Homo sapiens, UniProt P08172); experiment: Alphascreen Surefire phospho-ERK1/2 functional assay, CHO cells expressing M2; details: for Emax: CHO, read-out: % Emax cf. ACh, M2; for EC50: agonist, CHO cells, phospho-ERK1/2, read-out: pEC50 M2 (converted)
T4 construct: expressed in transfected cells
T4 sequence (P08172 1-466): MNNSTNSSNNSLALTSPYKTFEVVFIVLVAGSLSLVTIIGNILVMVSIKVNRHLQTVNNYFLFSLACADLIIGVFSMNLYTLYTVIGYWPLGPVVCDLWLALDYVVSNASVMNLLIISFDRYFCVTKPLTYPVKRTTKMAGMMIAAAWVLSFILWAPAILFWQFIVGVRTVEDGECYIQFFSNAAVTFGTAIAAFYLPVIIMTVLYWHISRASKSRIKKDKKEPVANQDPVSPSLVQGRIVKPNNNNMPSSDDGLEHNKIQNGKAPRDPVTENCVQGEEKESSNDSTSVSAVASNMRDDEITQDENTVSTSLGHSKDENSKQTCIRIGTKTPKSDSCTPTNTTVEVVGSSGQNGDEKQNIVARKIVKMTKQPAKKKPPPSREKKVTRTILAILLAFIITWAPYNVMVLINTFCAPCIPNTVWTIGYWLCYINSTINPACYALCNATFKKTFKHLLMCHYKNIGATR
Method: as §1

| Emax [1] | EC50 [1] | Emax [2] | EC50 [2] | Emax [3] | EC50 [3] | Emax [4] | EC50 [4] | Structure (SMILES) | selectivity for the M4 receptor relative to the M1 receptor ([1]; statement in words) |
| --- | --- | --- | --- | --- | --- | --- | --- | --- | --- |
| 97% | 15.8 nM | 71% | 794 nM | 7% | > 20000 nM | 6% | > 20000 nM | CCOC(=O)N1CC2(CC(N3CCC([C@@H]4CCCN4C(=O)NC)CC3)C2)C1 [Example 1-4, Ethyl 6-{4-[(2S)-1-(methylcarbamoyl)pyrrolidin-2-yl]piperidin-1-yl}-2-azaspiro[3.3]heptane-2-carboxylate] |  |
| 88% | 31.6 nM | 63% | 251 nM | 11% | > 20000 nM | 7% | > 20000 nM | CCOC(=O)N1CC2(CC(N3CCC(N4CC(F)(F)C[C@@H]4CO)CC3)C2)C1 [Example 1-12, Ethyl 6-{4-[(2R)-4,4-difluoro-2-(hydroxymethyl)pyrrolidin-1-yl]piperidin-1-yl}-2-azaspiro[3.3]heptane-2-carboxylate] |  |
| 78% | 200 nM | 67% | 794 nM |  |  |  |  | CCOC(=O)N1CC2(CC(N3CCC(N4C(=O)CC[C@@H]4C)CC3)C2)C1 [Example 1-8, Ethyl 6-{4-[(2S)-2-methyl-5-oxopyrrolidin-1-yl]piperidin-1-yl}-2-azaspiro[3.3]heptane-2-carboxylate] |  |
| 105% | 12.6 nM | 67% | 631 nM | 16% | > 20000 nM | 4% | > 20000 nM | CCOC(=O)N1CC2(CC(N3CCC(N4CCC[C@@H]4c4cnco4)CC3)C2)C1 [Example 1-6] |  |
| 117% | 158 nM | 101% | 1580 nM |  |  |  |  | CCOC(=O)N1CC2(CC(N3CCC(N4C(=O)CC[C@H]4C)CC3)C2)C1 [Example 1-9] |  |
| 49% | 39.8 nM | 12% | > 20000 nM | 6% | > 20000 nM | 10% | > 20000 nM | CCOC(=O)N1CC2(CC(N3CCC(N4CCC[C@@H]4c4cn(C)c(=O)o4)CC3)C2)C1 [Example 1-7, Ethyl 6-{4-[(2R)-2-(3-methyl-2-oxo-2,3-dihydro-1 ,3-oxazol-5yl)pyrrolidin-1-yl]piperidin-1-yl}-2-azaspiro[3.3]heptane-2-carboxylate] |  |
| 73% | 316 nM | 113% | 3160 nM |  |  |  |  | COC(=O)N1CC2(CC(N3CCC(c4nccn4C)CC3)C2)C1 [Example 1-1, Methyl 6-[4-(1-methyl-1H-imidazol-2-yl)piperidin-1-yl]-2-azaspiro[3.3]heptane-2-carboxylate] |  |
| 100% | 1260 nM | 100% | 10000 nM |  |  |  |  | CCOC(=O)N1CC2(CC(N3CCC(c4nccn4C)CC3)C2)C1 [Example 1-2, Ethyl 6-[4-(1-methyl-1H-imidazol-2-yl)piperidin-1-yl]-2-azaspiro[3.3]heptane-2-carboxylate] |  |

Continued, compound first:

| Structure (SMILES) | Emax [1] | EC50 [1] | Emax [2] | EC50 [2] | Emax [3] | EC50 [3] | Emax [4] | EC50 [4] | selectivity for the M4 receptor relative to the M1 receptor ([1]; statement in words) |
| --- | --- | --- | --- | --- | --- | --- | --- | --- | --- |
| CCOC(=O)N1CC2(CCC(N3CCC(N4CCC[C@@H]4c4cnco4)CC3)C2)C1 (single isomer, unassigned) [Example 2-12 (Isomer 2)] | 114% | 1 nM | 50% | 31.6 nM | 5% | > 20000 nM | 7% | > 20000 nM |  |
| COC(=O)N1CC2(CCC(N3CCC(N4CCC[C@@H]4c4cnco4)CC3)C2)C1 (single isomer, unassigned) [Example 2-11 (Isomer 2)] | 100% | 79.4 nM | 24% | > 20000 nM | 4% | > 20000 nM | 6% | > 20000 nM | highly selective for the M4 receptor relative to the M1 receptor |
| CCOC(=O)N1CC2(CC(N3CCC(N4CCCC4c4ccon4)CC3)C2)C1 (racemic) [Example 1-5 (racemic), ethyl 6-{4-[2-(1,2-oxazol-3-yl)pyrrolidin-1-yl]piperidin-1-yl}-2-azaspiro[3.3]heptane-2-carboxylate] | 64% | 39.8 nM | 18% | > 20000 nM | 10% | > 20000 nM | 67% | > 20000 nM |  |
| CCOC(=O)N1CC2(CCC(N3CCC(N4C(=O)CC[C@H]4C)CC3)C2)C1 (mixture of isomers) [Example 2-7 (mixture of isomers), Ethyl 6-{4-[(2R)-2-methyl-5-oxopyrrolidin-1-yl]piperidin-1-yl}-2-azaspiro[3.4]octane-2-carboxylate] | 69% | 3.98 nM | 71% | 39.8 nM | 53% | > 20000 nM | 9% | > 20000 nM |  |
| CCOC(=O)N1CC2(CCC(N3CCC(n4cccn4)CC3)C2)C1 (racemic) [Example 2-3 (racemic), Ethyl 6-[4-(1H-pyrazol-1-yl)piperidin-1-yl]-2-azaspiro[3.4]octane-2-carboxylate] | 94% | 1 nM | 105% | 3.98 nM | 5% | > 20000 nM | 2% | > 20000 nM |  |
| CCOC(=O)N1CC2(CCC(N3CCC(N4C(=O)CC[C@@H]4CC)CC3)C2)C1 (mixture of isomers) [Example 2-6 (mixture of isomers), Ethyl 6-{4-[(2S)-2-ethyl-5-oxopyrrolidin-1-yl]piperidin-1-yl}-2-azaspiro[3.4]octane-2-carboxylate] | 59% | 7.94 nM | 71% | 15.8 nM | 13% | > 20000 nM | 8% | > 20000 nM |  |
| CCOC(=O)N1CC2(CCC(N3CCC(N4CC(F)(F)C[C@@H]4CO)CC3)C2)C1 (mixture of isomers) [Example 2-10 (mixture of isomers), Ethyl 6-{4-[(2R)-4,4-difluoro-2-(hydroxymethyl)pyrrolidin-1-yl]piperidin-1-yl}-2-azaspiro[3.4]octane-2-carboxylate] | 32% | 6.31 nM | 6% | > 20000 nM |  |  |  |  |  |
| CCOC(=O)N1CC2(CCC(N3CCC(N4C(=O)CC[C@@H]4C)CC3)C2)C1 (mixture of isomers) [Example 2-5 (mixture of isomers), ethyl 6-{4-[(2S)-2-methyl-5-oxopyrrolidin-1-yl]piperidin-1-yl}-2-azaspiro[3.4]octane-2-carboxylate] | 36% | 12.6 nM | 38% | 158 nM | 3% | > 20000 nM | 6% | > 20000 nM |  |
| CCOC(=O)N1CC2(CCC(N3CCC(N4C(=O)CC[C@H]4CC)CC3)C2)C1 (mixture of isomers) [Example 2-9 (mixture of isomers), Ethyl 6-{4-[(2R)-2-ethyl-5-oxopyrrolidin-1-yl]piperidin-1-yl}-2-azaspiro[3.4]octane-2-carboxylate] | 123% | 3.16 nM | 100% | 39.8 nM | 8% | > 20000 nM | 11% | > 20000 nM |  |
